In the experiment the target is T1, cPLA2 (Homo sapiens, UniProt P47712).
T1 sequence (P47712 1-749): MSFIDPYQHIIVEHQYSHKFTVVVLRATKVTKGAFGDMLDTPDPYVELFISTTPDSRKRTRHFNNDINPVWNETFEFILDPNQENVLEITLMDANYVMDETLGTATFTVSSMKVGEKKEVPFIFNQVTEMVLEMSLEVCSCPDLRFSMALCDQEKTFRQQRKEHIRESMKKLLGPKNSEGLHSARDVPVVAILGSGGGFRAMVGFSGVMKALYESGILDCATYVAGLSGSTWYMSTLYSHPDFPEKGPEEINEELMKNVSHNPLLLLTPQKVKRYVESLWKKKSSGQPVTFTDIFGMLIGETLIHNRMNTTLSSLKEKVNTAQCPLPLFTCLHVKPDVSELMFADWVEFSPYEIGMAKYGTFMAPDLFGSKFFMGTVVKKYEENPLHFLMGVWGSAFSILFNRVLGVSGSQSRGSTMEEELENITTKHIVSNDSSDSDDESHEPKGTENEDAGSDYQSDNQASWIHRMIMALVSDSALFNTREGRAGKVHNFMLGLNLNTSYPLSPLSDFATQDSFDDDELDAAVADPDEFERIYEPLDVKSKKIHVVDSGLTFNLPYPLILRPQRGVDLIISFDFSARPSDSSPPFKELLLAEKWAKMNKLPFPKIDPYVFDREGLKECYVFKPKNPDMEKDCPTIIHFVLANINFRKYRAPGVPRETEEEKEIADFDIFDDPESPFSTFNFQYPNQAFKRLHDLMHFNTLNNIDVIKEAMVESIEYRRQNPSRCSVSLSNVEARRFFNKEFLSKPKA
Description: Coumarine assay (hydrolysis of 7-hydroxycoumarinyl 6-heptenoate). Format: biochemical. The conditions noted are these: 60 μM 7-hydroxycoumarinyl 6-heptenoate, pH 7.5; read-out: Coumarin IC50.
Description: Inhibitors were mixed with 200 μL assay buffer (80 mM Heped, pH 7.5, 1 mM EDTA) containing 60 μM 7-hydroxycoumarinyl 6-heptenoate. The reaction was initiated by adding 4 μg cPLA2 in 50 μL assay buffer. Hydrolysis of the 7-hydroxycounarimyl 6-heptenoate ester was monitored in a fluorometer by exciting at 360 nm and monitoring emission at 460 nm. Enzyme activity is proportional to the increase in emission at 460 nm per minute. In the presence of a cPLA2 inhibitor, the rate of increase is less.
For `O=C(O)c1cccc(OCCc2c(CCNS(=O)(=O)Cc3ccccc3)n(C(c3ccccc3)c3ccccc3)c3ccc(Cl)cc23)c1` [Example 283], the IC50 (usually the midpoint of a concentration-inhibition curve) is 0.5 µM.

With `O=C(O)c1ccc(OCCc2c(CCNS(=O)(=O)c3ccccc3[N+](=O)[O-])n(C(c3ccccc3)c3ccccc3)c3ccc(Cl)cc23)cc1` [Example 265, 4-{2-[1-benzhydryl-5-chloro-2-(2-{[(2-nitrophenyl)sulfonyl]amino}ethyl)-1H-indol-3-yl]ethoxy}benzoic acid], the IC50 amounted to 0.37 µM.

With `CC(CCl)c1ccccc1S(=O)(=O)NCCc1c(CCOc2ccc(C(=O)O)cc2)c2cc(Cl)ccc2n1C(c1ccccc1)c1ccccc1` (stereo not drawn) [Example 278], the IC50 was determined as 1.9 µM.

Turning to `O=C(O)c1ccc(OCCc2c(CCNS(=O)(=O)CSc3ccc(F)cc3F)n(C(c3ccccc3)c3ccccc3)c3ccc(Cl)cc23)cc1` [Example 288, 4-[2-(1-benzhydryl-5-chloro-2-{2-[({[(2,4-difluorophenyl)thio]methyl}sulfonyl)amino]ethyl}-1H-indol-3-yl)ethoxy]benzoic acid], the IC50 worked out at 0.4 µM.

Turning to `O=C(O)c1ccc(OCCc2c(CCNS(=O)(=O)c3ccc(C(F)(F)F)cc3)n(C(c3ccccc3)c3ccccc3)c3ccc(Cl)cc23)cc1` [Example 229, 4-(2-{1-benzhydryl-5-chloro-2-[2-({[4-(trifluoromethyl)phenyl]sulfonyl}amino)ethyl]-1H-indol-3-yl}ethoxy)benzoic acid], the IC50 was 0.5 µM.

Consider `O=C(O)CCc1ccc(S(=O)(=O)CCc2c(CCNS(=O)(=O)Cc3ccccc3)n(C(c3ccccc3)c3ccccc3)c3ccc(Cl)cc23)cc1` [Example 130, 3-(4-{[2-(1-Benzhydryl-2-{2-[(benzylsulfonyl)amino]ethyl}-5-chloro-1H-indol-3-yl)ethyl]sulfonyl}phenyl)propanoic acid], for which the IC50 amounted to 0.17 µM.

With `COc1ccc(S(=O)(=O)NCCc2c(CCOc3ccc(C(=O)O)cc3)c3cc(Cl)ccc3n2C(c2ccccc2)c2ccccc2)c2nonc12` [Example 175, 4-{2-[1-benzhydryl-5-chloro-2-(2-{[(7-methoxy-2,1,3-benzoxadiazol-4-yl)sulfonyl]amino}ethyl)-1H-indol-3-yl]ethoxy}benzoic acid], the IC50 came out at 0.37 µM.

As to `O=C(O)c1ccc(OCCc2c(CCNS(=O)(=O)Cc3cc(F)cc(F)c3)n(C(c3ccccc3)c3ccccc3)c3ccc(Cl)cc23)cc1` [Example 35, 4-{2-[1-benzhydryl-5-chloro-2-(2-{[(3,5-difluorobenzyl)-sulfonyl]amino}ethyl)-1H-indol-3-yl]ethoxy}benzoic acid], the IC50 amounted to 0.33 µM.

With `COc1cc(C)ccc1S(=O)(=O)NCCc1c(CCCc2ccc(C(=O)O)cc2)c2cc(Cl)ccc2n1C(c1ccccc1)c1ccccc1` [Example 167, 4-{3-[1-benzhydryl-5-chloro-2-(2-{[(2-methoxy-4-methylphenyl)sulfonyl]amino}ethyl)-1H-indol-3-yl]propyl}benzoic acid], the IC50 came to 0.19 µM.

With `CC(C)(C)c1ccccc1S(=O)(=O)NCCc1c(CCCc2ccc(C(=O)O)cc2)c2cc(Cl)ccc2n1C(c1ccccc1)c1ccccc1` [Example 236], the IC50 amounted to 0.085 µM.

`O=C(O)c1ccc(OCCc2c(CCNS(=O)(=O)c3c(F)cc(F)cc3F)n(C(c3ccccc3)c3ccccc3)c3ccc(Cl)cc23)cc1` [Example 196, 4-(2-{1-Benzhydryl-5-chloro-2-[2-(2,4,6-trifluoro-benzenesulfonylamino)-ethyl]-1H-indol-3-yl}-ethoxy)-benzoic acid]: the IC50 is 0.56 µM.

Consider `O=C(O)c1ccc(CCCc2c(CCNS(=O)(=O)c3cccc(OC(F)(F)F)c3)n(C(c3ccccc3)c3ccccc3)c3ccc(Cl)cc23)cc1` [Example 201, 4-(3-{1-Benzhydryl-5-chloro-2-[2-(3-trifluoromethoxy-benzenesulfonylamino)-ethyl]-1H-indol-3-yl}-propyl)-benzoic acid], for which the concentration for half-maximal inhibition (IC50) is 0.35 µM.

As to `Cc1ccccc1S(=O)(=O)NCCc1c(CCOc2ccc(C(=O)O)cc2)c2cc(Cl)ccc2n1C(c1ccccc1)c1ccccc1` [Example 233, 4-{2-[1-benzhydryl-5-chloro-2-(2-{[(2-methylphenyl)sulfonyl]amino}ethyl)-1H-indol-3-yl]ethoxy}benzoic acid], the IC50 was found to be 0.34 µM.

On to `O=C(O)c1ccc(OCCc2c(CCNS(=O)(=O)Cc3cccc(C(F)(F)F)c3)n(C(c3ccccc3)c3ccccc3)c3ccc(Cl)cc23)cc1` [Example 47, 4-(2-{1-benzhydryl-5-chloro-2-[2-({[3-(trifluoromethyl)benzyl]sulfonyl}amino)ethyl]-1H-indol-3-yl}ethoxy)benzoic acid], for which the IC50 worked out at 0.58 µM.

For the molecule `O=C(O)c1ccc(CCCc2c(CCNS(=O)(=O)c3cc(F)c(Cl)cc3F)n(C(c3ccccc3)c3ccccc3)c3ccc(Cl)cc23)cc1` [Example 168, 4-{3-[1-benzhydryl-5-chloro-2-(2-{[(4-chloro-2,5-difluorophenyl)sulfonyl]amino}ethyl)-1H-indol-3-yl]propyl}benzoic acid], the IC50 came out at 0.27 µM.

Take `CC(C)Oc1ccccc1S(=O)(=O)NCCc1c(CCCc2ccc(C(=O)O)cc2)c2cc(Cl)ccc2n1C(c1ccccc1)c1ccccc1` [Example 186, 4-(3-{1-Benzhydryl-5-chloro-2-[2-(2-isopropoxy-benzenesulfonylamino)-ethyl]-1H-indol-3-yl}-propyl)benzoic acid]: the IC50 was 0.1 µM.

With `O=C(O)c1ccc(OCCc2c(CCNS(=O)(=O)c3ccccc3C(F)(F)F)n(C(c3ccccc3)c3ccccc3)c3ccc(Cl)cc23)cc1` [Example 209, 4-[2-{1-Benzhydryl-5-chloro-2-[2-({[2-(trifluoromethyl)phenyl]sulfonyl}amino)ethyl]-1H-indol-3-yl}ethoxy)benzoic acid], the IC50 came to 0.35 µM.

As for `NCc1ccccc1S(=O)(=O)NCCc1c(CCOc2ccc(C(=O)O)cc2)c2cc(Cl)ccc2n1C(c1ccccc1)c1ccccc1` [Example 163, 4-(2-{2-[2-({[2-(aminomethyl)phenyl]sulfonyl}amino)ethyl]-1-benzhydryl-5-chloro-1H-indol-3-yl}ethoxy)benzoic acid], the IC50 was 0.3 µM.

`O=C(O)c1ccc(CCCc2c(CCNS(=O)(=O)c3c(Cl)cc(Cl)cc3Cl)n(C(c3ccccc3)c3ccccc3)c3ccc(Cl)cc23)cc1` [Example 154, 4-{3-[1-benzhydryl-5-chloro-2-(2-([(2,4,6-trichlorophenyl)sulfonyl]amino}ethyl)-1H-indol-3-yl]propyl}benzoic acid]: the IC50 was 0.35 µM.

Turning to `CCc1cccc(CC)c1S(=O)(=O)NCCc1c(CCOc2ccc(C(=O)O)cc2)c2cc(Cl)ccc2n1C(c1ccccc1)c1ccccc1` [Example 272, 4-{2-[1-benzhydryl-5-chloro-2-(2-{[(2,6-diethylphenyl)sulfonyl]amino}ethyl)-1H-indol-3-yl]ethoxy}benzoic acid], the IC50 turned out to be 0.1 µM.

`O=C(O)CCc1ccc(S(=O)(=O)CCc2c(CCNS(=O)(=O)Cc3ccc(Cl)c(Cl)c3)n(C(c3ccccc3)c3ccccc3)c3ccc(Cl)cc23)cc1` [Example 129, 3-[4-({2-[1-benzhydryl-5-chloro-2-(2-{[(3,4-dichlorobenzyl)sulfonyl]amino}ethyl)-1H-indol-3-yl]ethyl}sulfonyl)phenyl] propanoic acid]: the IC50 came to 0.13 µM.

The values are drawn from patent US7605156B2, “Methods for the use of inhibitors of cytosolic phospholipase A2” (Wyeth, priority 2001, dated 2009).
